According to patent publication US20140155389A1, “BICYCLIC INHIBITORS OF ALK” (ABBVIE INC., priority 2011, published 2014):
pKi: −log10 of the molar value.

What follows are compounds tested against T1, ALK (Homo sapiens, UniProt Q9UM73) (assay: ALK kinase assay (HTRF)). Details: apparent Ki from IC50 by Cheng-Prusoff; ALK (Millipore) 3 nM or 4 nM, 50 μM ATP, 1 h at room temperature; read-out: HTRF_ALK Human - Ki.
T1 construct: purchased Millipore
Assay type: biochemical

T1 sequence (Q9UM73 19-1620): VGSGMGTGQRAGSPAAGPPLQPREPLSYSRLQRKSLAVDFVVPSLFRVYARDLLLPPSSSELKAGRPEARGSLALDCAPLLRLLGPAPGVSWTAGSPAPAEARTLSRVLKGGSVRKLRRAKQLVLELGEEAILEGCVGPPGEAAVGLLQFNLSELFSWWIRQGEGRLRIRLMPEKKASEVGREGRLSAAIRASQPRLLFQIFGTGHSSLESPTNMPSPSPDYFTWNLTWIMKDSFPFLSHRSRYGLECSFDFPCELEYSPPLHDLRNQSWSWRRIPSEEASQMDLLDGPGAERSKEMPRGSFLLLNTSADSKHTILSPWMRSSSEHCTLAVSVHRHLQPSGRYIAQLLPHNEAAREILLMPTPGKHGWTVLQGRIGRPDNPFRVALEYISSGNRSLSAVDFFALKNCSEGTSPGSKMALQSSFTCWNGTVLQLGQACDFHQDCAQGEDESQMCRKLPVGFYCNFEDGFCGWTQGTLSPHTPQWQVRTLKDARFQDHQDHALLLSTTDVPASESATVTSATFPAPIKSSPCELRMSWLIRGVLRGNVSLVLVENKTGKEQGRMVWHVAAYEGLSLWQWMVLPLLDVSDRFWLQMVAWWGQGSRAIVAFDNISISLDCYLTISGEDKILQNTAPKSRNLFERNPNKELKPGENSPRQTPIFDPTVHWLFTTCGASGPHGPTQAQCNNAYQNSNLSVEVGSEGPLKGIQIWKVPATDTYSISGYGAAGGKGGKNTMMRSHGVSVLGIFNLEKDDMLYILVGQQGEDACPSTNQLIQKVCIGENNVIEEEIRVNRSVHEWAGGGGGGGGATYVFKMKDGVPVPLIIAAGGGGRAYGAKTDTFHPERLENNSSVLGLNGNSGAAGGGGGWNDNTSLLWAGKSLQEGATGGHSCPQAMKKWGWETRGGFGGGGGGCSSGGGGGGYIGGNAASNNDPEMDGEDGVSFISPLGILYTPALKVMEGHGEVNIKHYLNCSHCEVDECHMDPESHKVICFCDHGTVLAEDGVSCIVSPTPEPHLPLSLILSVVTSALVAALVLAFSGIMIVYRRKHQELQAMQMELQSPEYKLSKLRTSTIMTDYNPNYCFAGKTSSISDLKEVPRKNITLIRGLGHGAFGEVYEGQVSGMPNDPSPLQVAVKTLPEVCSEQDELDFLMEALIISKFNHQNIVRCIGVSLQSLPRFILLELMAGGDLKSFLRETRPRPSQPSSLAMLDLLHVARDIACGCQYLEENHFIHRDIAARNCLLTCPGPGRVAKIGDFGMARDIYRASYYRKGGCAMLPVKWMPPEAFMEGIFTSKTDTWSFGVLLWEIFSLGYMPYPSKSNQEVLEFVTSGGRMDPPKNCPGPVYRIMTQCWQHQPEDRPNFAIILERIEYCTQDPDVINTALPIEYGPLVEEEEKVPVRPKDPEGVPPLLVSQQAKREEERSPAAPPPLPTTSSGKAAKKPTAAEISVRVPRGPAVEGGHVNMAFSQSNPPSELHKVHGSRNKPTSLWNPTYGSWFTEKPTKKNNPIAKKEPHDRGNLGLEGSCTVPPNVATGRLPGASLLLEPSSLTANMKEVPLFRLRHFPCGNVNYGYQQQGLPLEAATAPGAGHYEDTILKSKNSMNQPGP

Row | pKi | Compound
1 | 8.70 | O=c1[nH]ncc2cc(Cc3c(Cl)cccc3Cl)nc(Nc3ccc(N4CCNCC4)cc3Br)c12 [Example 61, 5-{[2-bromo-4-(piperazin-1-yl)phenyl]amino}-7-(2,6-dichlorobenzyl)pyrido[3,4-d]pyridazin-4(3H)-one]
2 | 8.70 | COc1cc(N2CCNCC2)ccc1Nc1nc(Oc2ccccc2Cl)cc2cn[nH]c(=O)c12 [Example 62, 7-(2-chlorophenoxy)-5-{[2-methoxy-4-(piperazin-1-yl)phenyl]amino}pyrido[3,4-d]pyridazin-4(3H)-one]
3 | 9.00 | COc1cc(N2CCNCC2)ccc1Nc1nc(Oc2c(Cl)cccc2Cl)cc2cn[nH]c(=O)c12 [Example 63, 7-(2,6-dichlorophenoxy)-5-{[2-methoxy-4-(piperazin-1-yl)phenyl]amino}pyrido[3,4-d]pyridazin-4(3H)-one]
4 | 7.68 | Oc1nncc2cc(Cc3c(Cl)cccc3Cl)nc(Nc3ccc(N4CCNCC4)cc3OC(F)(F)F)c12 [Example 64, 7-(2,6-dichlorobenzyl)-5-{[4-(piperazin-1-yl)-2-(trifluoromethoxy)phenyl]amino}pyrido[3,4-d]pyridazin-4-ol]
5 | 9.00 | COc1cc(N2CCNCC2)ccc1Nc1nc(Nc2c(F)ccc(Cl)c2Cl)cc2cn[nH]c(=O)c12 [Example 65, 7-[(2,3-dichloro-6-fluorophenyl)amino]-5-{[2-methoxy-4-(piperazin-1-yl)phenyl]amino}pyrido[3,4-d]pyridazin-4(3H)-one]
6 | 8.00 | COc1cc(N2CCN3CCCC3C2)ccc1Nc1nc(Cc2c(Cl)cccc2Cl)cc2cn[nH]c(=O)c12 (stereo not shown) [Example 66, 7-(2,6-dichlorobenzyl)-5-{[4-(hexahydropyrrolo[1,2-a]pyrazin-2(1H)-yl)-2-methoxyphenyl]amino}pyrido[3,4-d]pyridazin-4(3H)-one]
7 | 8.70 | COc1cc(N2CCNCC2)ccc1Nc1nc(Nc2ccc(F)c(Cl)c2Cl)cc2cnnc(O)c12 [Example 67, 7-[(2,3-dichloro-4-fluorophenyl)amino]-5-{[2-methoxy-4-(piperazin-1-yl)phenyl]amino}pyrido[3,4-d]pyridazin-4-ol]
8 | 8.70 | COc1cc(N2CCNCC2)ccc1Nc1cc(Nc2c(Cl)cccc2Cl)nc2cn[nH]c(=O)c12 [Example 68, 2-[(2,6-dichlorophenyl)amino]-4-{[2-methoxy-4-(piperazin-1-yl)phenyl]amino}pyrido[2,3-d]pyridazin-5(6H)-one]
9 | 9.00 | Cc1c(Nc2nc(Cc3c(Cl)cccc3Cl)cc3cn[nH]c(=O)c23)ccc(N2CCNCC2)c1C [Example 69, 7-(2,6-dichlorobenzyl)-5-{[2,3-dimethyl-4-(piperazin-1-yl)phenyl]amino}pyrido[3,4-d]pyridazin-4(3H)-one]
10 | 9.00 | COc1cc(N2CCNCC2)ccc1Nc1cc(Cc2c(Cl)cccc2Cl)nc2cn[nH]c(=O)c12 [Example 70, 2-(2,6-dichlorobenzyl)-4-{[2-methoxy-4-(piperazin-1-yl)phenyl]amino}pyrido[2,3-d]pyridazin-5(6H)-one]
11 | 9.00 | COc1cc(N2CCNCC2)ccc1Nc1nc(Nc2c(F)cc(F)cc2Cl)cc2cnnc(O)c12 [Example 71, 7-[(2-chloro-4,6-difluorophenyl)amino]-5-{[2-methoxy-4-(piperazin-1-yl)phenyl]amino}pyrido[3,4-d]pyridazin-4-ol]
12 | 7.92 | COc1cc(N2CCNCC2)c(C)cc1Nc1nc(Cc2c(Cl)cccc2Cl)cc2cn[nH]c(=O)c12 [Example 72, 7-(2,6-dichlorobenzyl)-5-{[2-methoxy-5-methyl-4-(piperazin-1-yl)phenyl]amino}pyrido[3,4-d]pyridazin-4(3H)-one]
13 | 9.00 | Cc1cc(Nc2nc(Cc3c(Cl)cccc3Cl)cc3cn[nH]c(=O)c23)c(F)cc1N1CCNCC1 [Example 73, 7-(2,6-dichlorobenzyl)-5-{[2-fluoro-5-methyl-4-(piperazin-1-yl)phenyl]amino}pyrido[3,4-d]pyridazin-4(3H)-one]
